Measurements: the Kinase Knowledgebase extract (Sharma et al. 2016)
pIC50: −log10 of the molar value.

What was measured:
MAPK14 (human) [1] = molecular target: MAPK14 (human) (UniProt Q16539); test: Inhibition of IL-1 Production in LPS-Stimulated PBMCs; conditions: pbmc
MAPK14 (human) [2] = molecular target: MAPK14 (human) (UniProt Q16539); test: Inhibition of MAPK14 Kinase Activity
MAPK14 (human) [3] = molecular target: MAPK14 (human) (UniProt Q16539); test: Inhibition of TNF-alpha Production in LPS-Stimulated PBMCs; conditions: pbmc
MAPK14 (human) [4] = molecular target: MAPK14 (human) (UniProt Q16539); test: Inhibition of IL-1 Production in Whole Blood
MAPK14 (human) [5] = molecular target: MAPK14 (human) (UniProt Q16539); test: Inhibition of IL-6 Production in Whole Blood
MAPK14 (human) [6] = molecular target: MAPK14 (human) (UniProt Q16539); test: Inhibition of TNF Production in Whole Blood

MAPK14 (human), sequence (Q16539 whole entry, looked up): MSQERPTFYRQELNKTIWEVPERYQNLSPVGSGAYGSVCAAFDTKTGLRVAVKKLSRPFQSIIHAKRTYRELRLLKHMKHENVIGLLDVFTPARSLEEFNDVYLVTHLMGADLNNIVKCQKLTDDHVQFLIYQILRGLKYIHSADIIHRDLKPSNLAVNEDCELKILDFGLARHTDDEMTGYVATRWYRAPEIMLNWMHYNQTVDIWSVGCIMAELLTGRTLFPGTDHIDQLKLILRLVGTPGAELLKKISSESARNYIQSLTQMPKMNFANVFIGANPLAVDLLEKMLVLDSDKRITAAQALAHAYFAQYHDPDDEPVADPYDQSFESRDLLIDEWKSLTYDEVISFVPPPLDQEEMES

SMILES	pIC50 (MAPK14 (human) [1])	pIC50 (MAPK14 (human) [2])	pIC50 (MAPK14 (human) [3])	pIC50 (MAPK14 (human) [4])	pIC50 (MAPK14 (human) [5])	pIC50 (MAPK14 (human) [6])
Nc1ccc(Cl)c(-c2c(=O)ncn3nc(Sc4ccc(F)cc4)ccc23)c1Cl	6.30 to 7.00	6.00 to 7.00	< 6.30	< 6.30	< 6.30	< 6.30
O=C(O)c1cc(F)ccc1Sc1ccc2c(-c3c(Cl)cccc3Cl)c(=O)ncn2n1	< 6.30	< 6.00	< 6.30			
CCc1cc(Cl)c(C2=C3C=CC(Sc4ccc(F)cc4)=NN3CNC2=O)cc1O	6.30 to 7.00	> 7.00	< 6.30	< 6.30	< 6.30	< 6.30
O=C1NCN2N=C(Sc3ccc(F)cc3F)C=CC2=C1c1cc2c(cc1Cl)OCO2	> 7.00	> 7.00	> 7.00	> 6.60	> 6.60	> 6.60
